Patent US20200017495A1, “NOVEL HETEROCYCLIC COMPOUNDS AND THEIR USE IN PREVENTING OR TREATING BACTERIAL INFECTIONS” (priority 2017, published 2020)
Read-outs that look alike come from different tables or passages of the source.

Legend:
Assay in all cases: MIC of compounds alone and combined with antibacterials, broth microdilution (CLSI)
Assay type in all cases: cell-based
[1] = tested on: Citrobacter freundii (CFR) isolates
Summary of the method: (§1)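 First, log-phase suspensions are brought to 5.10^5 CFU/mL final in ca-MHB; plates then incubate 16-20 h at 35° C in air. Growth is judged visually, giving the compound MIC alone and the antibacterial MIC at each compound concentration.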

[2] = tested on: Citrobacter koseri (CKR) isolates
Summary of the method: as §1

[3] = tested on: Enterobacter aerogenes (EAE) isolates
Summary of the method: as §1

[4] = tested on: Klebsiella oxytoca (KOX) isolates
Summary of the method: as §1

[5] = tested on: Morganella morganii (MMO) isolates
Summary of the method: as §1

[6] = tested on: Serratia marcescens (SMA) isolates
Summary of the method: as §1

Measured: MIC

CO/N=C(\C(=O)N[C@@H]1C(=O)N2C(C(=O)O)=C(COC(N)=O)CS[C@H]12)c1ccco1 [FUR, Cefuroxime]
128 µg/mL: [5]; strain MMO UFR243, genotype DHA-1 | [5]; strain MMO UFR245, genotype DHA-1 | [5]; strain MMO UFR246, genotype DHA-1
>256 µg/mL: [1]; strain CFR UFR10, genotype OXA-48 | [1]; strain CFR UFR11, genotype TEM-1, OXA-1, OXA-48 | [1]; strain CFR UFR83, genotype TEM-3, AmpC | [1]; strain CFR UFR146, genotype TEM-1, KPC-2 | [1]; strain CFR UFR248, genotype CTX-M-15 | [1]; strain CFR UFR249, genotype TEM-1, CTX-M-15 | [1]; strain CFR UFR250, genotype TEM-1, SHV-28, CTX-M-15 | [2]; strain CKO UFR149, genotype OXA-48 | [3]; strain EAE 200261, genotype TEM-x, AmpC | [3]; strain EAE UFR199, genotype TEM-1b, SHV-12, KPC-2, OXA-9 | [3]; strain EAE UFR201, genotype TEM-1, SHV-12, CTX-M-15 | [3]; strain EAE UFR202, genotype TEM-24 | [3]; strain EAE UFR213, genotype TEM-24 | [4]; strain KOX UFR21, genotype TEM-1, CTX-M-15, OXA-48 | [4]; strain KOX UFR173, genotype OXY2-2 | [4]; strain KOX UFR224, genotype CTX-M-15, OXA-48 | [5]; strain MMO 200321, genotype TEM-1, CTX-M-15, OXA-1 | [5]; strain MMO UFR144, genotype TEM-1, CTX-M-15 | [5]; strain MMO UFR240, genotype CTX-M-9 | [5]; strain MMO UFR241, genotype TEM-1, CTX-M-15 | [5]; strain MMO UFR242, genotype TEM-52 | [5]; strain MMO UFR247, genotype DHA-1 | [6]; strain SMA UFR30, genotype OXA-405 | [6]; strain SMA UFR134, genotype TEM-1, BES-1 | [6]; strain SMA UFR135, genotype TEM-1, KPC-2 | [6]; strain SMA UFR136, genotype TEM-1, SHV-12, KPC-2 | [6]; strain SMA UFR139, genotype SME-2 | [6]; strain SMA UFR141, genotype OXA-48 | [6]; strain SMA UFR142, genotype OXA-48 | [6]; strain SMA UFR143, genotype CTX-M-15, OXA-1, OXA-48 | [6]; strain SMA UFR238, genotype OXA-48
>128 µg/mL: [3]; strain EAE 49469, genotype AmpC
32 µg/mL: [1]; strain CFR UFR253, genotype TEM-1, SHV-12, OXA-48 | [1]; strain CFR UFR254, genotype VEB-1b, OXA-48, qnrA
8 µg/mL: [4]; strain KOX UFR223, genotype SHV-11, OXA-48
256 µg/mL: [6]; strain SMA UFR137, genotype SME-1 | [6]; strain SMA UFR138, genotype SME-1 | [6]; strain SMA UFR239, genotype ESAC
64 µg/mL: [2]; strain CKO ROU, genotype TEM-1, SHV-12, CTX-M-15, OXA-1, OXA-48 | [2]; strain CKO UFR150, genotype TEM-1, OXA-48 | [5]; strain MMO UFR244, genotype DHA-1

COCC1=C(C(=O)O)N2C(=O)[C@@H](NC(=O)/C(=N\OC)c3csc(N)n3)[C@H]2SC1 [POD, Cefpodoxime]
32 µg/mL: [1]; Citrobacter freundii, strain CFR UFR253, genotype TEM-1, SHV-12, OXA-48, read-out: MIC | [1]; Citrobacter freundii, strain CFR UFR254, genotype VEB-1b, OXA-48, qnrA, read-out: MIC | [6]; Serratia marcescens, strain SMA UFR30, genotype OXA-405, read-out: MIC
2 µg/mL: [6]; Serratia marcescens, strain SMA UFR138, genotype SME-1, read-out: MIC
4 µg/mL: [2]; Citrobacter koseri, strain CKO ROU, genotype TEM-1, SHV-12, CTX-M-15, OXA-1, OXA-48, read-out: MIC
64 µg/mL: [5]; Morganella morganii, strain MMO UFR243, genotype DHA-1, read-out: MIC | [5]; Morganella morganii, strain MMO UFR245, genotype DHA-1, read-out: MIC | [5]; Morganella morganii, strain MMO UFR246, genotype DHA-1, read-out: MIC | [5]; Morganella morganii, strain MMO UFR247, genotype DHA-1, read-out: MIC
1 µg/mL: [6]; Serratia marcescens, strain SMA UFR137, genotype SME-1, read-out: MIC
0.5 µg/mL: [4]; Klebsiella oxytoca, strain KOX UFR223, genotype SHV-11, OXA-48, read-out: MIC
8 µg/mL: [6]; Serratia marcescens, strain SMA UFR139, genotype SME-2, read-out: MIC | [6]; Serratia marcescens, strain SMA UFR141, genotype OXA-48, read-out: MIC | [6]; Serratia marcescens, strain SMA UFR142, genotype OXA-48, read-out: MIC | [6]; Serratia marcescens, strain SMA UFR238, genotype OXA-48, read-out: MIC
16 µg/mL: [2]; Citrobacter koseri, strain CKO UFR150, genotype TEM-1, OXA-48, read-out: MIC | [5]; Morganella morganii, strain MMO UFR244, genotype DHA-1, read-out: MIC | [6]; Serratia marcescens, strain SMA UFR239, genotype ESAC, read-out: MIC
> 128 µg/mL: [3]; Klebsiella aerogenes, strain EAE 49469, genotype AmpC, read-out: MIC
